Results reported in BindingDB's records for patent US20240043395 (Neuropore Therapies, 2024).

Target: Toll-like receptor 2 (Homo sapiens, UniProt O60603)
Assay: LR2 Assays
Protocol: Next, 50 μL of an approximate 3×EC50 concentration of each agonist (Pam2CSK4 or Pam3CSK4) was added to the wells containing test compounds or the vehicle control. The plates were then incubated at 37° C./5% CO2 for 18 h. For each assay run, non-treated HEK-Blue hTLR2 cells were treated with serial dilutions of agonists to determine EC50 values for the respective run. On day 2, secreted alkaline phosphatase (SEAP) activity was detected in cell culture supernatants. In brief, 20 μL was collected from each well and transferred to a 96-well plate. Next, 200 μL of Quanti-Blue detection reagent was added to each well. […] IC50 values were calculated based on 8-point dilutions for each compound.

Toll-like receptor 2, sequence (O60603 whole entry): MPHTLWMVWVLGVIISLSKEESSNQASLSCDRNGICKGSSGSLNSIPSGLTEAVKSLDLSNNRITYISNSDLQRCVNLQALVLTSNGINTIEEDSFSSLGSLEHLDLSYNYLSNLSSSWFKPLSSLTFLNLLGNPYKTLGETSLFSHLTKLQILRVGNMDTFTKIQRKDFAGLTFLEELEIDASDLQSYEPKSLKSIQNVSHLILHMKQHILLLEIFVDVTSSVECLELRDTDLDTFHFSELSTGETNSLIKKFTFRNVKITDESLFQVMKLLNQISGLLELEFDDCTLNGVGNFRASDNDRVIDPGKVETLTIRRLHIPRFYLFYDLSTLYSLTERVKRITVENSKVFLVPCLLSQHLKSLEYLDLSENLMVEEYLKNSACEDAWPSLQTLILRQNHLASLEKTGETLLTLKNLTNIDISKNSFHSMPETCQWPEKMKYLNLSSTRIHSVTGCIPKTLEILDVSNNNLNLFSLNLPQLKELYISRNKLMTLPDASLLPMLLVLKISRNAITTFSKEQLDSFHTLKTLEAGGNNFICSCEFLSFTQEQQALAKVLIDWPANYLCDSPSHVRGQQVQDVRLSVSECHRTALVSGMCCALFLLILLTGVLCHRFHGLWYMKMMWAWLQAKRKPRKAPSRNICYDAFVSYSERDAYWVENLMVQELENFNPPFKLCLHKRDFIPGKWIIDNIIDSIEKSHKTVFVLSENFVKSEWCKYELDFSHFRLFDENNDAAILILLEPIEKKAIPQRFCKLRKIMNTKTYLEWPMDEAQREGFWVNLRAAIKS

`O=Cc1cc(NC(=O)c2csc(N3CCCCC3)n2)cc(F)c1O` [US20240043395, Compound 9] was tested, and the IC50 was 5.2 µM.
